According to patent publication US20090143388A1, “TREATMENT OF BRAIN DISORDERS” (priority 2007, published 2009):
Entries after “also recorded” stand apart in the source; their conditions may differ.

What was measured:
Balb/c mice [1] = experiment: Striatal DA, DOPAC and HVA by HPLC-electrochemistry in MPTP-treated mice; format: in vivo
Method: FIG. 2. Irsogladine reverses MPTP-induced reductions in striatal DA metabolism. Striatal DA (A) and its metabolites, DOPAC (B) and HVA (C) were assayed employing a sensitive HPLC-electrochemical procedure on the 5th day following the administration of MPTP (30 mg/kg; administered twice, 16 h apart, i.p.). Irsogladine (25, 50 and 100 mg/kg, p.o.) was administered for two days at 12 h intervals following the second MPTP injection. Results given are mean±S.E.M., n=6-8 for control groups and 10-12 for MPTP-treated groups (*p<0.05 vs. control; Student's t-test).
(§1) Animals. Adult male Balb/c mice, weighing 20-25 g were used in the present study. They were housed under standard conditions of temperature (22±1° C.), humidity (60±5%) and illumination (12-h light/dark cycle). The experimental protocol met the National Guidelines on the ‘Proper Care and Use of Animals in Laboratory Research’ (Indian National Science Academy, New Delhi, 2000) and was approved by the Animal Ethics Committee of the Institute. The procedures adhered to the NIH Guidelines for the Care and Use of Laboratory Animals.
(§2) Experimental design. The animals were divided into eight groups. The first four groups of animals received either vehicle (0.5% CMC) or different doses of irsogladine (25, 50, and 100 mg/kg). The fifth group of animals was administered with MPTP. The remaining three groups received the two doses of MPTP, and different doses of irsogladine (25, 50, and 100 mg/kg). Each of the control groups consisted of 6-8 animals; while MPTP treated groups consisted of 10-12 animals. The total period of study was 5 days. Each experiment was repeated at least twice on separate days.
(§3) MPTP was dissolved in normal saline and administered intraperitonially (i.p.), twice, 16 h apart, at the dose of 30 mg/kg to mice. The animals received the first injections at 1700 h and the second at 0900 h the next day. Different doses of irsogladine (25, 50, and 100 mg/kg) were suspended in 0.5% sodium CMC and administered to control and MPTP-treated mice. Irsogladine administration started 30 min after the second MPTP injection and continued at an interval of 12 h for the next two days. The volume of injection was 10 μl/g body weight.
(§4) Analysis of biogenic amines by HPLC-electrochemistry. DA, DOPAC, HVA, 5-HT, and 5-HIAA were assayed employing HPLC equipped with an electrochemical detector. Animals were sacrificed on the 5th day by cervical dislocation. Striata were quickly dissected out from the left and right hemispheres of the brain, weighed, sonicated in chilled HClO4 (0.1 M) containing 0.05% EDTA and centrifuged at 12,500×g for 5 min. The supernatant was injected into an HPLC-ECD system (Merck-Hitachi, Germany). The biogenic amines were separated on an ion-pair Ultrasphere RP analytical column (Beckmann, Calif.). The mobile phase contained 8.65 mM heptane sulfonic acid, 0.27 mM EDTA, 13% acetonitrile (HPLC grade), 0.45% triethylamine, and 0.25% phosphoric acid (v/v). The flow rate was 0.7 ml/min and the glassy carbon working electrode was kept at 0.74 V.

Balb/c mice [2] = experiment: Striatal 5-HT and 5-HIAA levels by HPLC-electrochemistry; format: in vivo; conditions: for level of 5-HIAA, in words / level of serotonin (5-HT), in words: animals treated with MPTP and/or irsogladine; for 5-HIAA (pmol/mg tissue; Mean ± SEM) / 5-HT (pmol/mg tissue; Mean ± SEM): striatum, 5th day
Method: Serotonin (5-HT) and its metabolite were assayed employing a sensitive HPLC-electrochemical procedure in the striata of Balb/c mice on 5th day following MPTP treatment (30 mg/kg; administered twice, 16 h apart, i.p.). Irsogladine (25, 50 and 100 mg/kg, p.o.) was administered for two days at 12 h intervals following second MPTP injection. Results given are mean±S.E.M., n=6-8 for control groups and 10-12 for MPTP-treated groups
as §1, §2, §3, §4

Balb/c mice [3] = experiment: MPTP-induced akinesia; format: in vivo
Method: (§5) FIG. 3. Effect of irsogladine on MPTP-induced akinesia (A) and catalepsy (B). Assessment of catalepsy was undertaken 2 h after the treatment of MPTP in Balb/c mice. […] Results given are mean±S.E.M., n=6-8 for control group and 10-12 for MPTP-treated groups (*p<0.01 vs. control; Mann-Whitney Rank Sum test).
as §2, §3
Akinesia. Akinesia was measured by noting the latency in seconds (s) of the animals to move all four limbs and the test was terminated if the latency exceeded 180 s. Each animal was initially acclimatized for 5 min on a wooden elevated platform (40 cm×40 cm×30 cm) used for measuring akinesia in mice. Using a stopwatch, the time taken (s) by the animal to move all the four limbs was recorded. This exercise was repeated five times for each animal.

Balb/c mice [4] = experiment: MPTP-induced catalepsy; format: in vivo; conditions: for catalepsy (rigidity), drug alone: irsogladine alone, no MPTP
Method: as §5, §2, §3
Catalepsy. The term implies the inability of an animal to correct an externally imposed posture. Catalepsy was measured by placing the animals on a flat horizontal surface with both the hind limbs on a square wooden block (3 cm high) and the latency in seconds was measured to move the hind limbs from the block to the ground. The animals were initially acclimatized on the wooden platform.

Balb/c mice [5] = experiment: Swim-ability (swim score) after MPTP; format: in vivo; conditions: 4th day
Method: FIG. 4. Irsogladine attenuates MPTP-induced swim disability in mice. Effect of different doses of Irsogladine on the swimming ability of Balb/c mice was tested in warm water (27±2° C.) on the fourth day following the treatment of MPTP (30 mg/kg, i.p., twice, 16 h apart). Swim-scores were recorded on a performance intensity scale of 0-3 for all the animals for 10 min. Results given are mean±S.E.M., n=6-8 for control groups and 10-12 for MPTP-treated groups (p≦0.05; vs. control; Wilcoxon Signed Rank test for group comparison).
as §2
MPTP was dissolved in normal saline and administered intraperitonially (i.p.), twice, 16 h apart, at the dose of 30 mg/kg to mice. The animals received the first injections at 1700 h and the second at 0900 h the next day. […]

[6] = system: MPP^+-induced hydroxyl radical (.OH) in the mitochondria; experiment: MPP+-induced hydroxyl radical (2,3-DHBA) production in sub-mitochondrial particles; format: biochemical; conditions: for MPP+-induced 2,3-DHBA (OH adduct of salicylate) production in the mitochondria: irsogladine 0.01-1 mM, MPP+ 100 μM, sub-mitochondrial particles, 30 min; for increase in the production of 2,3-DHBA (OH production): sub-mitochondrial particles incubated with MPP+ (100 μM)
Method: FIG. 1. Irsogladine scavenges MPP^+-induced OH from the mitochondria. Sub-mitochondrial particles were incubated with the neurotoxic metabolite of MPTP, 1-methyl-4-phenyl pyridinium ion (MPP^+) and salicylic acid in the presence and absence of irsogladine. The resulting OH adducts of salicylate, 2,3-dihydroxy benzoic acid (2,3-DHBA) was assayed using a HPLC equipped with electrochemical detector.
Irsogladine scavenges MPP^+-induced hydroxyl radical (.OH) in the mitochondria. The oxidative metabolite of MPTP, 1-methyl-4-phenylpyridinium ion (MPP^+) is selectively taken into the dopaminergic neurons through dopamine transporters, and sequestered in the mitochondria.
Preparation of sub-mitochondrial particles and estimation of hydroxyl radical. Mitochondrial P2 fraction was obtained by making a 10% homogenate of the cerebral cortex, with a glass-Teflon homogenizer in 0.32 M sucrose in cold 10 mM potassium phosphate buffer, pH 7.2. The homogenate was centrifuged at 1,000×g for 10 min at 4° C. using a Sorvall centrifuge. The supernatant was centrifuged at 10,000×g for 30 min. The pellet was resuspended in the same volume of ice-cold 50 mM Tris in 10 mM potassium phosphate buffer (pH 7.2) and centrifuged at 10,000×g for 30 min. This step was repeated once. The pellet thus obtained was suspended in the same volume of ice-cold 10 mM potassium phosphate buffer, pH 7.2 and kept overnight at −20° C. The mitochondrial suspension was thawed, and the protein content was estimated.
The .OH adduct of salicylate, 2,3-dihydroxybenzoic acid (DHBA), was assayed employing HPLC-electrochemistry as described earlier. The ex-vivo OH production was tested in sub-mitochondrial particles. Mitochondrial fraction was incubated with MPP^+ (100 μM) and phosphate buffer (0.1 M) for 5 min. Sodium salicylate (0.75 mM) and different concentrations of irsogladine (0.01-1 mM) were added 5 min after the addition of MPP^+ and incubated for 30 min. The reaction was stopped by adding equal amount of ice-cold perchloric acid (0.1 M) containing 0.01% EDTA, kept on ice for 30 min and then centrifuged at 10,000×g for 5 min. The supernatant was injected into the HPLC system for the assay of 2,3-DHBA. Standard solution containing 2,3-DHBA was injected prior to and after the analyses of the samples, and the products formed are expressed as pmol/mg protein/min.

[7] = MPTP alone (30 mg/kg i.p. twice, 16 h apart)
[8] = MPTP 30 mg/kg i.p. twice, 2 h after second injection, compared to saline treated mice
[9] = irsogladine post-treatment in MPTP-treated mice
[10] = irsogladine 25 mg/kg p.o. + MPTP
[11] = irsogladine 25 mg/kg p.o., no MPTP
[12] = irsogladine 50 mg/kg p.o. + MPTP
[13] = irsogladine 50 mg/kg p.o., no MPTP
[14] = irsogladine 100 mg/kg p.o. + MPTP
[15] = irsogladine 100 mg/kg p.o., no MPTP
[16] = highest dose of irsogladine in MPTP-treated mice
[17] = irsogladine 25, 50, 100 mg/kg p.o. in MPTP-treated mice, 2 h after second MPTP injection

CN1CC=C(c2ccccc2)CC1 [MPTP, 1-methyl-4-phenyl-1,2,3,6-tetrahydropyridine]
depletion of striatal DA (Balb/c mice [1]; MPTP 30 mg/kg i.p., 2 times 16 h apart, 5th day, compared to saline-injected mice): 55% | level of 5-HIAA, in words (Balb/c mice [2]): not altered | level of serotonin (5-HT), in words (Balb/c mice [2]): not altered | 5-HIAA (pmol/mg tissue; Mean ± SEM) (Balb/c mice [2]; [7]): 2.50 ± 0.24 pmol/mg tissue | 5-HT (pmol/mg tissue; Mean ± SEM) (Balb/c mice [2]; [7]): 2.77 ± 0.31 pmol/mg tissue | akinetic behavior induced by MPTP (Balb/c mice [3]; [8]): significant akinetic | cataleptic behavior induced by MPTP (Balb/c mice [4]; [8]): cataleptic | swim score after MPTP (Balb/c mice [5]; MPTP 30 mg/kg i.p. twice, vs sham-treated animals, from the 2nd minute onwards): significant reduction

Nc1nc(N)nc(-c2cc(Cl)ccc2Cl)n1 [Irsogladine, 2,4-diamino-6-(2,5-dichlorophenyl)-s-triazine]
MPP+-induced 2,3-DHBA (OH adduct of salicylate) production in the mitochondria [6]: significantly attenuated | MPP+-induced 2,3-DHBA (OH adduct of salicylate) production in the mitochondria ([6]; listed as irsogladine): dose-dependently scavenged | protection of striatal DA (Balb/c mice [1]; irsogladine 25, 50 and 100 mg/kg p.o., b.i.d. for 2 days, post-treatment in MPTP-treated mice, 5th day): significant dose-dependant protection | alteration of striatal DA (Balb/c mice [1]; irsogladine alone in control animals): did not cause significant alteration | reversal of MPTP-induced reduction of striatal DOPAC (Balb/c mice [1]; [9]): dose-dependant reversal | reversal of MPTP-induced reduction of striatal HVA (Balb/c mice [1]; [9]): dose-dependant reversal | alteration of striatal DOPAC level (Balb/c mice [1]; irsogladine treatment alone): did not cause any significant alterations | alteration of striatal HVA level (Balb/c mice [1]; irsogladine treatment alone): did not cause any significant alterations | level of 5-HIAA, in words (Balb/c mice [2]): not altered | level of serotonin (5-HT), in words (Balb/c mice [2]): not altered | 5-HIAA (pmol/mg tissue; Mean ± SEM) (Balb/c mice [2]; [10]): 2.11 ± 0.17 pmol/mg tissue | 5-HT (pmol/mg tissue; Mean ± SEM) (Balb/c mice [2]; [10]): 2.64 ± 0.24 pmol/mg tissue | 5-HIAA (pmol/mg tissue; Mean ± SEM) (Balb/c mice [2]; [11]): 2.32 ± 0.31 pmol/mg tissue | 5-HT (pmol/mg tissue; Mean ± SEM) (Balb/c mice [2]; [11]): 2.52 ± 0.34 pmol/mg tissue | 5-HIAA (pmol/mg tissue; Mean ± SEM) (Balb/c mice [2]; [12]): 2.88 ± 0.17 pmol/mg tissue | 5-HT (pmol/mg tissue; Mean ± SEM) (Balb/c mice [2]; [12]): 2.97 ± 0.27 pmol/mg tissue | 5-HIAA (pmol/mg tissue; Mean ± SEM) (Balb/c mice [2]; [13]): 2.99 ± 0.29 pmol/mg tissue | 5-HT (pmol/mg tissue; Mean ± SEM) (Balb/c mice [2]; [13]): 2.96 ± 0.61 pmol/mg tissue | 5-HIAA (pmol/mg tissue; Mean ± SEM) (Balb/c mice [2]; [14]): 2.01 ± 0.09 pmol/mg tissue | 5-HT (pmol/mg tissue; Mean ± SEM) (Balb/c mice [2]; [14]): 2.68 ± 0.24 pmol/mg tissue | 5-HIAA (pmol/mg tissue; Mean ± SEM) (Balb/c mice [2]; [15]): 2.32 ± 0.16 pmol/mg tissue | 5-HT (pmol/mg tissue; Mean ± SEM) (Balb/c mice [2]; [15]): 2.52 ± 0.28 pmol/mg tissue | attenuation of MPTP-induced akinesia, highest dose (Balb/c mice [3]; [16]): complete | attenuation of MPTP-induced akinesia (Balb/c mice [3]; [17]): dose-dependently reduced; also recorded: dose-dependently attenuated | akinesia, drug alone (Balb/c mice [3]; irsogladine alone, no MPTP): absent | attenuation of MPTP-induced catalepsy, highest dose (Balb/c mice [4]; [16]): complete | attenuation of MPTP-induced catalepsy (Balb/c mice [4]; [17]): dose-dependently reduced; also recorded: dose-dependently attenuated | catalepsy (rigidity), drug alone (Balb/c mice [4]): does not cause catalepsy | catalepsy (rigidity), drug alone (Balb/c mice [4]; listed as irsladine): absent | improvement of swim score (Balb/c mice [5]; irsogladine post-treatment in MPTP-treated mice, dose-dependently): significantly improved

C[n+]1ccc(-c2ccccc2)cc1 [MPP^+, 1-methyl-4-phenylpyridinium ion]
increase in the production of 2,3-DHBA (OH production) [6]: 5 fold | increase in the production of 2,3-DHBA (OH production) ([6]; listed as MPP+): about 5 fold
